The record followed here is PubChem BioAssay (NCI).

Each structure is given as a SMILES string. Where “and” joins values, the source holds several entries; their conditions need not be identical. Equal entries are not always repeated.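 All cell lines were grown in 96-well plates and treated with compound for 48 hours. The concentration for 50% growth inhibition is given as GI50. TGI: concentration producing complete growth inhibition.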

Test systems include CAKI-1 renal; SK-MEL-28 melanoma; DU-145 prostate; U251 CNS; HCT-15 colon; SF-268 CNS; RPMI-8226 leukemia; SK-OV-3 ovarian.
Assay in all cases: inhibition of tumour cell growth, NCI panel, 48 h

`c1ccc(/C(=N\Nc2nc3ccccc3s2)c2ccccn2)cc1`: the TGI in the experiment with CAKI-1 renal was greater than 100 µM; in the experiment on SK-MEL-28 melanoma, greater than 100 µM; with DU-145 prostate, 30 µM; with U251 CNS it was greater than 40.9 µM; with HCT-15 colon, greater than 100 µM; in the experiment with SF-268 CNS, greater than 50.4 µM. Also, the TGI with RPMI-8226 leukemia worked out at 27.9 µM; in the experiment with SK-OV-3 ovarian it was 98.6 µM.
As for `COc1cccc(-c2nn(-c3ccccc3)cc2-c2ccnc(NCCCNS(=O)(=O)c3ccc(C(F)(F)F)cc3)c2)c1`, the GI50 with CAKI-1 renal is 5.76 µM; in the experiment on SK-MEL-28 melanoma, 9.1 µM; in the experiment with DU-145 prostate, 22.7 µM; in the experiment on U251 CNS, 5.63 µM; in the experiment with HCT-15 colon, 4.08 µM; in the experiment with SF-268 CNS, 6.88 µM. In addition, the GI50 in the experiment with RPMI-8226 leukemia was 3.63 µM; with SK-OV-3 ovarian, 4.82 µM. Moreover, the TGI with CAKI-1 renal, with SK-MEL-28 melanoma, in the experiment on DU-145 prostate, in the experiment with U251 CNS, with HCT-15 colon and in the experiment with SF-268 CNS was greater than 100 µM in each case. Moreover, the TGI in the experiment with RPMI-8226 leukemia and with SK-OV-3 ovarian was greater than 100 µM in each case.
Turning to `O=C(CC1Sc2ccccc2NC1=O)NNc1ccc(F)cc1` (stereo not given), the GI50 in the experiment with CAKI-1 renal was 42.5 µM; in the experiment on SK-MEL-28 melanoma, greater than 100 µM; in the experiment with DU-145 prostate, 57 µM; with U251 CNS, greater than 100 µM; with HCT-15 colon it was 6.76 µM; in the experiment on SF-268 CNS it was 81 µM. In addition, the GI50 with RPMI-8226 leukemia is 52 µM; in the experiment on SK-OV-3 ovarian, greater than 100 µM. The TGI with CAKI-1 renal, in the experiment on SK-MEL-28 melanoma, in the experiment on DU-145 prostate, in the experiment on U251 CNS, in the experiment with HCT-15 colon and in the experiment on SF-268 CNS was greater than 100 µM each time. The TGI in the experiment on RPMI-8226 leukemia and in the experiment on SK-OV-3 ovarian was greater than 100 µM each time.
With `CC(=N\O)/C(C)=N/O.CC(=N\O)/C(C)=N/O.[Fe].[NH2-].c1c[nH]cn1`, the GI50 in the experiment with CAKI-1 renal, in the experiment on SK-MEL-28 melanoma, in the experiment on DU-145 prostate, in the experiment on U251 CNS, in the experiment on HCT-15 colon and in the experiment with SF-268 CNS was greater than 100 µM in each case. Further, the GI50 with RPMI-8226 leukemia and in the experiment with SK-OV-3 ovarian was greater than 100 µM each time. Also, the TGI in the experiment on CAKI-1 renal, in the experiment with SK-MEL-28 melanoma, in the experiment with DU-145 prostate, in the experiment on U251 CNS, in the experiment with HCT-15 colon and in the experiment on SF-268 CNS was greater than 100 µM in each case. Besides, the TGI in the experiment on RPMI-8226 leukemia and in the experiment on SK-OV-3 ovarian was greater than 100 µM each time.
With `C(=C\c1ccc(OCC2CO2)cc1)/C1=NCOC1` (stereo not given), the GI50 in the experiment with CAKI-1 renal was 16.3 µM; with SK-MEL-28 melanoma it was 6.3 µM; in the experiment with DU-145 prostate, 9.82 µM; with U251 CNS, 10.1 µM; with HCT-15 colon, 5.89 µM; in the experiment with SF-268 CNS, 7.3 µM. Besides, the GI50 was 13.1 µM in the experiment with RPMI-8226 leukemia and 8.92 µM in the experiment with SK-OV-3 ovarian. The TGI is 40.8 µM in the experiment on CAKI-1 renal; 21.4 µM with SK-MEL-28 melanoma; 29.2 µM with DU-145 prostate; 25 µM in the experiment with U251 CNS; 21.3 µM with HCT-15 colon; 33.8 µM in the experiment on SF-268 CNS. Besides, the values for the TGI in the experiment with RPMI-8226 leukemia and in the experiment with SK-OV-3 ovarian were 37.2 µM and 25.5 µM, respectively.
Take `CCC(=C(c1ccc(OCCN2CCCC2)cc1)c1ccc(OCCN2CCCC2)cc1)c1ccc(Cl)cc1`: the GI50 with CAKI-1 renal is 0.52 µM; with SK-MEL-28 melanoma, 0.571 µM; in the experiment on DU-145 prostate, 0.617 µM; in the experiment with U251 CNS, 0.576 µM; in the experiment on HCT-15 colon, 0.524 µM; with SF-268 CNS, 0.612 µM. Further, the GI50 was 0.674 µM in the experiment on RPMI-8226 leukemia and 0.583 µM in the experiment on SK-OV-3 ovarian. For the same compound, the TGI in the experiment on CAKI-1 renal came to 0.992 µM; in the experiment on SK-MEL-28 melanoma, 1.06 µM; in the experiment with DU-145 prostate, 1.14 µM; in the experiment on U251 CNS, 1.14 µM; in the experiment on HCT-15 colon it was 1.04 µM; in the experiment on SF-268 CNS, 1.25 µM. The results for the TGI with RPMI-8226 leukemia and with SK-OV-3 ovarian were 1.53 µM and 1.14 µM, respectively.
On to `COc1ccc2c(c1)C(=O)c1c-2n(CCCCl)c(=O)c2cc(N)ccc12`, for which the GI50 in the experiment with CAKI-1 renal was greater than 100 µM; with SK-MEL-28 melanoma, greater than 100 µM; in the experiment with DU-145 prostate, 56.9 µM; in the experiment with U251 CNS it was greater than 51.6 µM; with HCT-15 colon it was greater than 95.7 µM; in the experiment on SF-268 CNS, greater than 75.4 µM. In addition, the GI50 in the experiment with RPMI-8226 leukemia and in the experiment with SK-OV-3 ovarian was greater than 100 µM in each case. The TGI with CAKI-1 renal, in the experiment on SK-MEL-28 melanoma, in the experiment with DU-145 prostate, in the experiment with U251 CNS, with HCT-15 colon and with SF-268 CNS was greater than 100 µM each time. The TGI with RPMI-8226 leukemia and in the experiment on SK-OV-3 ovarian was greater than 100 µM throughout.
`NC(Cc1c[nH]c2cccc(F)c12)C(=O)O` (stereo not given): the GI50 in the experiment with CAKI-1 renal was 1080 µM; with SK-MEL-28 melanoma it was 74.7 µM and 360 µM; in the experiment on DU-145 prostate it was 32 µM and 297 µM; in the experiment with U251 CNS, 50.8 µM and 340 µM; in the experiment on HCT-15 colon it was 61.6 µM and 266 µM; in the experiment on SF-268 CNS, 801 µM. Further, the GI50 in the experiment on SK-OV-3 ovarian was 518 µM. For the same compound, the TGI with CAKI-1 renal is greater than 4500 µM; in the experiment with SK-MEL-28 melanoma it was greater than 4500 µM; in the experiment on DU-145 prostate it was greater than 4500 µM; with U251 CNS, 1280 µM; in the experiment on HCT-15 colon it was 2870 µM; in the experiment on SF-268 CNS, greater than 4500 µM. The TGI in the experiment on RPMI-8226 leukemia and with SK-OV-3 ovarian was greater than 4500 µM in each case.
Take `O=C(c1ccc(Nc2nccc(NCCCCNc3ccnc4cc(Cl)ccc34)n2)cc1)N1CCCCC1`: the GI50 in the experiment with CAKI-1 renal was 2.77 µM; in the experiment with SK-MEL-28 melanoma, 2.04 µM; with DU-145 prostate it was 3.53 µM; with U251 CNS, 1.53 µM; in the experiment with HCT-15 colon, 1.69 µM; with SF-268 CNS it was 2.36 µM. For the same compound, the GI50 was 0.999 µM in the experiment on RPMI-8226 leukemia and 5.45 µM in the experiment on SK-OV-3 ovarian. Further, the TGI stood at 8.84 µM in the experiment with CAKI-1 renal; 4.67 µM in the experiment on SK-MEL-28 melanoma; 14.3 µM in the experiment with DU-145 prostate; 3.38 µM in the experiment on U251 CNS; 6.43 µM with HCT-15 colon; 8.31 µM with SF-268 CNS. Further, the TGI stood at 4.44 µM in the experiment with RPMI-8226 leukemia and 18 µM in the experiment on SK-OV-3 ovarian.
